Activity calls are given as the source filed them. No rule for the calls is given here.
Tested on: CCRIS mutagenicity, Ames/micronucleus/aberration tests
Assay: CCRIS mutagenicity studies
[1] = Test System: AMES SALMONELLA TYPHIMURIUM, Strain/Indicator: TA98, Metabolic Activation: HAMSTER, LIVER, S-9, AROCLOR 1254 (10%), Method: PREINCUBATION
[2] = Test System: AMES SALMONELLA TYPHIMURIUM, Strain/Indicator: TA98, Metabolic Activation: HAMSTER, LIVER, S-9, AROCLOR 1254, Method: STANDARD PLATE
[3] = Test System: AMES SALMONELLA TYPHIMURIUM, Strain/Indicator: TA98, Metabolic Activation: NONE, Method: PREINCUBATION
[4] = Test System: AMES SALMONELLA TYPHIMURIUM, Strain/Indicator: TA98, Metabolic Activation: NONE, Method: STANDARD PLATE
[5] = Test System: AMES SALMONELLA TYPHIMURIUM, Strain/Indicator: TA98, Metabolic Activation: RAT, LIVER, S-9, AROCLOR 1254 (10%), Method: PREINCUBATION
[6] = Test System: AMES SALMONELLA TYPHIMURIUM, Strain/Indicator: TA98, Metabolic Activation: RAT, LIVER, S-9, AROCLOR 1254, Method: STANDARD PLATE
[7] = Test System: AMES SALMONELLA TYPHIMURIUM, Strain/Indicator: TA100, Metabolic Activation: HAMSTER, LIVER, S-9, AROCLOR 1254 (10%), Method: PREINCUBATION
[8] = Test System: AMES SALMONELLA TYPHIMURIUM, Strain/Indicator: TA100, Metabolic Activation: HAMSTER, LIVER, S-9, AROCLOR 1254, Method: STANDARD PLATE
[9] = Test System: AMES SALMONELLA TYPHIMURIUM, Strain/Indicator: TA100, Metabolic Activation: NONE, Method: PREINCUBATION
[10] = Test System: AMES SALMONELLA TYPHIMURIUM, Strain/Indicator: TA100, Metabolic Activation: NONE, Method: STANDARD PLATE
[11] = Test System: AMES SALMONELLA TYPHIMURIUM, Strain/Indicator: TA100, Metabolic Activation: RAT, LIVER, S-9, AROCLOR 1254 (10%), Method: PREINCUBATION
[12] = Test System: AMES SALMONELLA TYPHIMURIUM, Strain/Indicator: TA100, Metabolic Activation: RAT, LIVER, S-9, AROCLOR 1254, Method: STANDARD PLATE
[13] = Test System: AMES SALMONELLA TYPHIMURIUM, Strain/Indicator: TA1535, Metabolic Activation: HAMSTER, LIVER, S-9, AROCLOR 1254 (10%), Method: PREINCUBATION
[14] = Test System: AMES SALMONELLA TYPHIMURIUM, Strain/Indicator: TA1535, Metabolic Activation: HAMSTER, LIVER, S-9, AROCLOR 1254, Method: STANDARD PLATE
[15] = Test System: AMES SALMONELLA TYPHIMURIUM, Strain/Indicator: TA1535, Metabolic Activation: NONE, Method: PREINCUBATION
[16] = Test System: AMES SALMONELLA TYPHIMURIUM, Strain/Indicator: TA1535, Metabolic Activation: NONE, Method: STANDARD PLATE
[17] = Test System: AMES SALMONELLA TYPHIMURIUM, Strain/Indicator: TA1535, Metabolic Activation: RAT, LIVER, S-9, AROCLOR 1254 (10%), Method: PREINCUBATION
[18] = Test System: AMES SALMONELLA TYPHIMURIUM, Strain/Indicator: TA1535, Metabolic Activation: RAT, LIVER, S-9, AROCLOR 1254, Method: STANDARD PLATE
[19] = Test System: AMES SALMONELLA TYPHIMURIUM, Strain/Indicator: TA1537, Metabolic Activation: HAMSTER, LIVER, S-9, AROCLOR 1254 (10%), Method: PREINCUBATION
[20] = Test System: AMES SALMONELLA TYPHIMURIUM, Strain/Indicator: TA1537, Metabolic Activation: HAMSTER, LIVER, S-9, AROCLOR 1254, Method: STANDARD PLATE
[21] = Test System: AMES SALMONELLA TYPHIMURIUM, Strain/Indicator: TA1537, Metabolic Activation: NONE, Method: PREINCUBATION
[22] = Test System: AMES SALMONELLA TYPHIMURIUM, Strain/Indicator: TA1537, Metabolic Activation: NONE, Method: STANDARD PLATE
[23] = Test System: AMES SALMONELLA TYPHIMURIUM, Strain/Indicator: TA1537, Metabolic Activation: RAT, LIVER, S-9, AROCLOR 1254 (10%), Method: PREINCUBATION
[24] = Test System: AMES SALMONELLA TYPHIMURIUM, Strain/Indicator: TA1537, Metabolic Activation: RAT, LIVER, S-9, AROCLOR 1254, Method: STANDARD PLATE
[25] = Test System: AMES SALMONELLA TYPHIMURIUM, Strain/Indicator: TA1538, Metabolic Activation: NONE, Method: STANDARD PLATE
[26] = Test System: AMES SALMONELLA TYPHIMURIUM, Strain/Indicator: TA1538, Metabolic Activation: RAT, LIVER, S-9, AROCLOR 1254, Method: STANDARD PLATE

Question: Which mutagenic call (Test System: AMES SALMONELLA TYPHIMURIUM, Strain/Indicator: SV50, Metabolic Activation: HAMSTER, LIVER, S-9, Method: PREINCUBATION (PRIVAL METHOD)) does the source give for `Cc1cc(-c2ccc(N=Nc3cc(S(=O)(=O)O)c4ccccc4c3N)c(C)c2)ccc1N=Nc1cc(S(=O)(=O)O)c2ccccc2c1N` here?
Answer: active; positive

Question: And the mutagenic call (Test System: AMES SALMONELLA TYPHIMURIUM, Strain/Indicator: SV50, Metabolic Activation: RAT, LIVER, S-9, AROCLOR 1254, Method: PREINCUBATION (PRIVAL METHOD))?
Answer: active; positive

Question: And the mutagenic call [1]?
Answer: inactive; negative

Question: What about the mutagenic call [2] of the same compound?
Answer: inactive; negative

Question: What about the mutagenic call (Test System: AMES SALMONELLA TYPHIMURIUM, Strain/Indicator: TA98, Metabolic Activation: HAMSTER, LIVER, S-9, Method: PREINCUBATION (PRIVAL METHOD)) of the same compound?
Answer: active; positive

Question: And the mutagenic call [3]?
Answer: inactive; negative

Question: What about the mutagenic call [4] of the same compound?
Answer: inactive; negative

Question: What about the mutagenic call [5] of the same compound?
Answer: inactive; negative

Question: And the mutagenic call (Test System: AMES SALMONELLA TYPHIMURIUM, Strain/Indicator: TA98, Metabolic Activation: RAT, LIVER, S-9, AROCLOR 1254, Method: PREINCUBATION (PRIVAL METHOD))?
Answer: active; positive

Question: What about the mutagenic call [6] of the same compound?
Answer: inactive; negative

Question: What about the mutagenic call [7] of the same compound?
Answer: inactive; negative

Question: And the mutagenic call [8]?
Answer: inactive; negative

Question: What about the mutagenic call [9] of the same compound?
Answer: inactive; negative

Question: And the mutagenic call [10]?
Answer: inactive; negative

Question: And the mutagenic call [11]?
Answer: inactive; negative

Question: What about the mutagenic call [12] of the same compound?
Answer: inactive; negative

Question: What about the mutagenic call [13] of the same compound?
Answer: inactive; negative

Question: And the mutagenic call [14]?
Answer: inactive; negative

Question: What about the mutagenic call [15] of the same compound?
Answer: inactive; negative

Question: And the mutagenic call [16]?
Answer: inactive; negative

Question: And the mutagenic call [17]?
Answer: inactive; negative

Question: What about the mutagenic call [18] of the same compound?
Answer: inactive; negative

Question: And the mutagenic call [19]?
Answer: inactive; negative

Question: What about the mutagenic call [20] of the same compound?
Answer: inactive; negative

Question: And the mutagenic call [21]?
Answer: inactive; negative

Question: And the mutagenic call [22]?
Answer: inactive; negative

Question: And the mutagenic call [23]?
Answer: inactive; negative

Question: What about the mutagenic call [24] of the same compound?
Answer: inactive; negative

Question: What about the mutagenic call (Test System: AMES SALMONELLA TYPHIMURIUM, Strain/Indicator: TA1538, Metabolic Activation: HAMSTER, LIVER, S-9, AROCLOR 1254, Method: STANDARD PLATE) of the same compound?
Answer: inactive; negative

Question: And the mutagenic call (Test System: AMES SALMONELLA TYPHIMURIUM, Strain/Indicator: TA1538, Metabolic Activation: HAMSTER, LIVER, S-9, Method: STANDARD PLATE)?
Answer: inactive; negative

Question: What about the mutagenic call [25] of the same compound?
Answer: inactive; negative

Question: What about the mutagenic call [26] of the same compound?
Answer: inactive; negative

Question: And the mutagenic call (Test System: MOUSE LYMPHOMA, Strain/Indicator: L5178Y (TK+/TK-), Metabolic Activation: NONE, Method: SUSPENSION/PLATE)?
Answer: inactive; negative. reevaluation of results: negative

Question: What about the mutagenic call (Test System: MOUSE LYMPHOMA, Strain/Indicator: L5178Y (TK+/TK-), Metabolic Activation: RAT, LIVER, S-9, AROCLOR 1254, Method: SUSPENSION/PLATE) of the same compound?
Answer: inactive; negative. reevaluation of results: negative

Question: For `CC1(C)C(=O)[C@]2(C)CC[C@H]1C2`, which mutagenic call [2] is on record?
Answer: inactive; negative

Question: And the mutagenic call [4]?
Answer: inactive; negative

Question: And the mutagenic call [6]?
Answer: inactive; negative

Question: What about the mutagenic call [8] of the same compound?
Answer: inactive; negative

Question: What about the mutagenic call [10] of the same compound?
Answer: inactive; negative

Question: And the mutagenic call [12]?
Answer: inactive; negative

Question: And the mutagenic call (Test System: AMES SALMONELLA TYPHIMURIUM, Strain/Indicator: TA102, Metabolic Activation: HAMSTER, LIVER, S-9, AROCLOR 1254, Method: STANDARD PLATE)?
Answer: inactive; negative

Question: What about the mutagenic call (Test System: AMES SALMONELLA TYPHIMURIUM, Strain/Indicator: TA102, Metabolic Activation: NONE, Method: STANDARD PLATE) of the same compound?
Answer: inactive; negative

Question: And the mutagenic call (Test System: AMES SALMONELLA TYPHIMURIUM, Strain/Indicator: TA102, Metabolic Activation: RAT, LIVER, S-9, AROCLOR 1254, Method: STANDARD PLATE)?
Answer: inactive; negative

Question: And the mutagenic call [14]?
Answer: inactive; negative

Question: And the mutagenic call [16]?
Answer: inactive; negative

Question: What about the mutagenic call [18] of the same compound?
Answer: inactive; negative

Question: What about the mutagenic call [20] of the same compound?
Answer: inactive; negative

Question: And the mutagenic call [22]?
Answer: inactive; negative

Question: What about the mutagenic call [24] of the same compound?
Answer: inactive; negative

Question: What about the mutagenic call (Test System: Mouse lymphoma, Strain/Indicator: L5178Y (tk+/tk-), Metabolic Activation: None, Method: Suspension/plate) of the same compound?
Answer: inactive; negative

Question: And the mutagenic call (Test System: Mouse lymphoma, Strain/Indicator: L5178Y (tk+/tk-), Metabolic Activation: Rat, Liver, S-9, Aroclor 1254, Method: Suspension/plate)?
Answer: active; positive

Question: Which mutagenic call [1] does the source give for `NCCCCCCN` here?
Answer: inactive; negative

Question: And the mutagenic call [3]?
Answer: inactive; negative

Question: What about the mutagenic call [5] of the same compound?
Answer: inactive; negative

Question: And the mutagenic call [7]?
Answer: inactive; negative

Question: And the mutagenic call [9]?
Answer: inactive; negative

Question: What about the mutagenic call [11] of the same compound?
Answer: inactive; negative

Question: What about the mutagenic call [13] of the same compound?
Answer: inactive; negative

Question: And the mutagenic call [15]?
Answer: inactive; negative

Question: What about the mutagenic call [17] of the same compound?
Answer: inactive; negative

Question: And the mutagenic call [19]?
Answer: inactive; negative

Question: What about the mutagenic call [21] of the same compound?
Answer: inactive; negative

Question: What about the mutagenic call [23] of the same compound?
Answer: inactive; negative

Question: Which results are given for `CCOC(=O)C[n+]1csc2ccccc21`?
Answer: mutagenic call [4]: inactive; negative; mutagenic call [10]: inactive; negative; mutagenic call [16]: inactive; negative; mutagenic call (Test System: E.COLI, Strain/Indicator: WP2, Metabolic Activation: NONE, Method: STANDARD PLATE): inactive; negative; mutagenic call (Test System: E.COLI, Strain/Indicator: WP2 UVRA, Metabolic Activation: NONE, Method: STANDARD PLATE): inactive; negative

Question: Which mutagenic call [4] does the source give for `N=C1CCC(=N)c2c1c(O)c1ccccc1c2O` here?
Answer: inactive; negative

Question: And the mutagenic call [10]?
Answer: inactive; negative

Question: What about the mutagenic call [12] of the same compound?
Answer: inactive; negative

Question: And the mutagenic call [16]?
Answer: inactive; negative

Question: What about the mutagenic call [18] of the same compound?
Answer: inactive; negative

Question: What about the mutagenic call [22] of the same compound?
Answer: active; positive

Question: What about the mutagenic call [24] of the same compound?
Answer: active; positive

Question: What about the mutagenic call [25] of the same compound?
Answer: inactive; negative

Question: And the mutagenic call [26]?
Answer: inactive; negative
